This is an account of results in patent US20250197389A1, “NITROGEN-CONTAINING HETEROCYCLIC COMPOUND” (SHANGHAI SHIJIANG BIOTECHNOLOGY CO., LTD, priority 2022, published 2025).

Molecules are shown by their SMILES.

Usually IC50 stands for the concentration that inhibits the measured activity by half. A low value points to inhibition by little substance.

One assay concerns mPTP-active Daoy cell. Description: Inhibitory effect on mPTP-active Daoy cell (Promega CellTiter-Glo, intracellular ATP). It counts as cell-based, human. As to conditions: Homo sapiens, Daoy, Daoy cell transfected with empty virus vector without PPIF shRNA.
With `COc1ccc2c(c1OCCCBr)CN1CCc3cc4c(cc3C1=C2)OCO4` [AB35544], half-maximal inhibition (IC50) required 0.72 µM.

`COc1ccc2c(c1OCCCCl)C(C1CCCC1)N1CCc3cc4c(cc3C1=C2)OCO4` (stereo not shown) [AB35434] registered a half-inhibitory concentration (IC50) of 5.21 µM.

Consider `COc1ccc2c(c1OCCN(C)C)C(C(Cl)(Cl)Cl)N1CCc3cc4c(cc3C1=C2)OCO4` (stereo not shown) [AB35446], for which half-maximal inhibition (IC50) was put at 16.2 µM.

Take `COc1ccc2c(c1OC)C(C1CCCC1)N1CCc3cc4c(cc3C1=C2CCc1ccccc1)OCO4` (stereo not shown) [AB35448]: half-maximal inhibition (IC50) required 3.53 µM.

In turn, `COc1ccc2c(c1OC(=O)CC13CC4CC(CC(C4)C1)C3)C(C)N1CCc3cc4c(cc3C1=C2)OCO4` (stereo not shown) [AB31896] came in with an IC50 of 5.02 µM.

On to `COc1ccc2c(c1OC)C(C(Cl)(Cl)Cl)N1CCc3cc4c(cc3C1=C2Cc1ccccn1)OCO4` (stereo not shown) [AB35447], for which the IC50 worked out at 22.9 µM.

The compound `COc1ccc2c(c1Cl)CN1CCc3cc4c(cc3C1=C2)OCO4` [AB36450] showed an IC50 of 5.12 µM.

Turning to `COc1ccc2c(c1OCCNC(=O)OC(C)(C)C)C(C(Cl)(Cl)Cl)N1CCc3cc4c(cc3C1=C2)OCO4` (stereo not shown) [AB35416], the half-maximal inhibitory concentration (IC50) is 10.6 µM.

The compound `COc1ccc2c(c1OCCCCl)C(C(Cl)(Cl)Cl)N1CCc3cc4c(cc3C1=C2)OCO4` (stereo not shown) [AB35441] came in with an IC50 of 2.88 µM.

Take `COc1ccc2c(c1OCCCCl)C(C1CCC1)N1CCc3cc4c(cc3C1=C2)OCO4` (stereo not shown) [AB35490]: the IC50 stood at 10.6 µM.

On to `COc1ccc2c(c1OCCN1CCCCC1)C(C(Cl)(Cl)Cl)N1CCc3cc4c(cc3C1=C2)OCO4` (stereo not shown) [AB35420], for which the midpoint of inhibition, the IC50, lay at 9.55 µM.

`COc1ccc2c(c1OCCCCCCBr)C(C1CCCC1)N1CCc3cc4c(cc3C1=C2)OCO4` (stereo not shown) [AB35458] showed an IC50 of 3.85 µM.

On to `COc1ccc2c(c1OCCCCl)C(C1CCCCC1)N1CCc3cc4c(cc3C1=C2)OCO4` (stereo not shown) [AB35491], for which the IC50 was 6.01 µM.

In the case of `COc1ccc2c(c1OC)C(C1CCC1)N1CCc3cc4c(cc3C1=C2)OCO4` (stereo not shown) [AB36447], the IC50 is 6.73 µM.

Consider `COc1ccc2c(c1OC)C(n1cccc1)N1CCc3cc4c(cc3C1=C2)OCO4` (stereo not shown) [AB36520], for which it took 16.1 µM to reach half-maximal inhibition (IC50).

In the case of `COc1ccc2c(c1OCCCCl)CN1CCc3cc4c(cc3C1=C2)OCO4` [AB35543], half-maximal inhibition (IC50) was put at 1.22 µM.

Compound `COc1ccc2cc3n(c(=O)c2c1OC)CCc1cc2c(cc1-3)OCO2` [AB36496] had an IC50 of 86.3 µM.

Take `CCCCCCC1c2c(ccc(OC)c2OC)C=C2c3cc4c(cc3CCN21)OCCO4` (stereo not shown) [AB31880]: the IC50 was 2.93 µM.

`COc1ccc2c(c1N1CCCCCC1)CN1CCc3cc4c(cc3C1=C2)OCO4` [AB36493] returned an IC50 of 1.34 µM.

`ClC(Cl)(Cl)C1c2c(ccc3c2OCO3)C(CCCc2ccccc2)=C2c3cc4c(cc3CCN21)OCO4` (stereo not shown) [AB35428] had an IC50 of 12.9 µM.

`CC1c2c(ccc3c2OCO3)C(CCCc2ccccc2)=C2c3cc4c(cc3CCN21)OCO4` (stereo not shown) [AB35427]: the IC50 turned out to be 3.27 µM.

As for `COc1ccc2c(c1OC)C(C1CCCC1)N1CCc3cc4c(cc3C1=C2CCCCCCCl)OCO4` (stereo not shown) [AB35500], the IC50 is 3.46 µM.

In turn, `CCCCOc1c(OC)ccc2c1C(C(Cl)(Cl)Cl)N1CCc3cc4c(cc3C1=C2)OCO4` (stereo not shown) [AB35494] registered an IC50 of 1.28 µM.

`ClC(Cl)(Cl)C1c2c(ccc3c2OCO3)C=C2c3cc4c(cc3CCN21)OCO4` (stereo not shown) [AB35421] came in with an IC50 above 50 µM.

Consider `COc1ccc2c(c1OCCCCOc1ccccc1)C(C)N1CCc3cc4c(cc3C1=C2)OCO4` (stereo not shown) [AB31881], for which the IC50 is 4.34 µM.

On to `COc1ccc2c(c1NCCc1ccccc1)C(C(Cl)(Cl)Cl)N1CCc3cc4c(cc3C1=C2)OCO4` (stereo not shown) [AB35486], for which the IC50 is 0.71 µM.

Another assay has as its system mPTP-inactive Daoy cell. The assay is described as follows: Inhibitory effect on mPTP-inactive Daoy cell (PPIF shRNA; Promega CellTiter-Glo, intracellular ATP). The format is cell-based, human. Conditions: Homo sapiens, Daoy, Daoy cell transfected with virus vector carrying PPIF shRNA. From the text: The activity of mitochondria permeability transition pore (mPTP) was regulated by the PPIF protein. […] PPIF protein activity was restricted by the expression level of PPIF protein in cell.
(In general: Cellular ATP, detected with luciferase, serves as a proxy for viable cell number.)
In turn, `COc1ccc2c(c1OCCCBr)CN1CCc3cc4c(cc3C1=C2)OCO4` [AB35544] yielded an IC50 of 0.2 µM.

`COc1ccc2c(c1OCCCCl)C(C1CCCC1)N1CCc3cc4c(cc3C1=C2)OCO4` (stereo not shown) [AB35434] registered a half-inhibitory concentration (IC50) of 2.48 µM.

`COc1ccc2c(c1OCCN(C)C)C(C(Cl)(Cl)Cl)N1CCc3cc4c(cc3C1=C2)OCO4` (stereo not shown) [AB35446] had an IC50 of 17.6 µM.

In turn, `COc1ccc2c(c1OC)C(C1CCCC1)N1CCc3cc4c(cc3C1=C2CCc1ccccc1)OCO4` (stereo not shown) [AB35448] returned an IC50 of 1.72 µM.

As to `COc1ccc2c(c1OC(=O)CC13CC4CC(CC(C4)C1)C3)C(C)N1CCc3cc4c(cc3C1=C2)OCO4` (stereo not shown) [AB31896], the IC50 came to 2.42 µM.

Consider `COc1ccc2c(c1OC)C(C(Cl)(Cl)Cl)N1CCc3cc4c(cc3C1=C2Cc1ccccn1)OCO4` (stereo not shown) [AB35447], for which half-maximal inhibition (IC50) was put at 25.7 µM.

With `COc1ccc2c(c1Cl)CN1CCc3cc4c(cc3C1=C2)OCO4` [AB36450], the IC50 was 2.23 µM.

`COc1ccc2c(c1OCCNC(=O)OC(C)(C)C)C(C(Cl)(Cl)Cl)N1CCc3cc4c(cc3C1=C2)OCO4` (stereo not shown) [AB35416] yielded an IC50 of 5.11 µM.

Turning to `COc1ccc2c(c1OCCCCl)C(C(Cl)(Cl)Cl)N1CCc3cc4c(cc3C1=C2)OCO4` (stereo not shown) [AB35441], the IC50 turned out to be 1.27 µM.

Consider `COc1ccc2c(c1OCCCCl)C(C1CCC1)N1CCc3cc4c(cc3C1=C2)OCO4` (stereo not shown) [AB35490], for which the IC50 was found to be 3.76 µM.

Take `COc1ccc2c(c1OCCN1CCCCC1)C(C(Cl)(Cl)Cl)N1CCc3cc4c(cc3C1=C2)OCO4` (stereo not shown) [AB35420]: the half-maximal inhibitory concentration (IC50) came to 4.59 µM.

The compound `COc1ccc2c(c1OCCCCCCBr)C(C1CCCC1)N1CCc3cc4c(cc3C1=C2)OCO4` (stereo not shown) [AB35458] showed an IC50 of 1.84 µM.

In turn, `COc1ccc2c(c1OCCCCl)C(C1CCCCC1)N1CCc3cc4c(cc3C1=C2)OCO4` (stereo not shown) [AB35491] had an IC50 of 2.63 µM.

Take `COc1ccc2c(c1OC)C(C1CCC1)N1CCc3cc4c(cc3C1=C2)OCO4` (stereo not shown) [AB36447]: the IC50 turned out to be 2.65 µM.

Consider `COc1ccc2c(c1OC)C(n1cccc1)N1CCc3cc4c(cc3C1=C2)OCO4` (stereo not shown) [AB36520], for which the IC50 stood at 16 µM.

As to `COc1ccc2c(c1OCCCCl)CN1CCc3cc4c(cc3C1=C2)OCO4` [AB35543], the IC50 turned out to be 0.44 µM.

In turn, `COc1ccc2cc3n(c(=O)c2c1OC)CCc1cc2c(cc1-3)OCO2` [AB36496] gave a half-inhibitory concentration (IC50) above 100 µM.

`CCCCCCC1c2c(ccc(OC)c2OC)C=C2c3cc4c(cc3CCN21)OCCO4` (stereo not shown) [AB31880] displayed an IC50 of 1.13 µM.

Turning to `COc1ccc2c(c1N1CCCCCC1)CN1CCc3cc4c(cc3C1=C2)OCO4` [AB36493], the IC50 is 0.35 µM.

As for `ClC(Cl)(Cl)C1c2c(ccc3c2OCO3)C(CCCc2ccccc2)=C2c3cc4c(cc3CCN21)OCO4` (stereo not shown) [AB35428], the IC50 turned out to be 5.61 µM.

Consider `CC1c2c(ccc3c2OCO3)C(CCCc2ccccc2)=C2c3cc4c(cc3CCN21)OCO4` (stereo not shown) [AB35427], for which the IC50 stood at 1.49 µM.

Take `COc1ccc2c(c1OC)C(C1CCCC1)N1CCc3cc4c(cc3C1=C2CCCCCCCl)OCO4` (stereo not shown) [AB35500]: 1.71 µM corresponded to half-maximal inhibition (IC50).

In the case of `CCCCOc1c(OC)ccc2c1C(C(Cl)(Cl)Cl)N1CCc3cc4c(cc3C1=C2)OCO4` (stereo not shown) [AB35494], 0.36 µM corresponded to half-maximal inhibition (IC50).

On to `ClC(Cl)(Cl)C1c2c(ccc3c2OCO3)C=C2c3cc4c(cc3CCN21)OCO4` (stereo not shown) [AB35421], for which the IC50 was found to be 24.9 µM.

The compound `COc1ccc2c(c1OCCCCOc1ccccc1)C(C)N1CCc3cc4c(cc3C1=C2)OCO4` (stereo not shown) [AB31881] registered an IC50 of 2.12 µM.

In turn, `COc1ccc2c(c1NCCc1ccccc1)C(C(Cl)(Cl)Cl)N1CCc3cc4c(cc3C1=C2)OCO4` (stereo not shown) [AB35486] came in with an IC50 of 0.23 µM.

A further assay has as its system mitochondria permeability transition pore. Description: Mitochondria membrane potential (TMRM) in Daoy cell transfected with empty virus vector. It counts as cell-based, human. Conditions: H2O2 +, CsA −; untreated = 100. From the text: (§1) For cells with active mitochondria permeability transition pore, adding peroxide (such as H2O2) could increase the activity of mitochondria permeability transition pore, resulting in a decrease in mitochondria membrane potential.
With `OO` [Compound H2O2, H2O2], the “Relative TMRM signal intensity (%) in the Daoy cell transfected with empty virus vector, mean value” came out at 79%.

The next assay has the same test system. The assay is described as follows: Mitochondria membrane potential (TMRM) in Daoy cell, mPTP activity. It counts as cell-based, human. As to conditions: H2O2 +, CsA −; untreated = 100.
Source text: as §1
As to `OO` [Compound H2O2, H2O2], the “Relative TMRM signal intensity (%) in Daoy cell, mean value” is on record as 82%.

Another assay shares this test system. Description: Mitochondria membrane potential (TMRM) in Daoy cell transfected with virus vector carrying PPIF shRNA. As to conditions: H2O2 +, CsA −; untreated = 100. It counts as cell-based, human.
Source text: as §1
For the compound `OO` [Compound H2O2, H2O2], the “Relative TMRM signal intensity (%) in the Daoy cell transfected with virus vector carrying PPIF shRNA, mean value” came out at 95%.
